According to the supplement of paper PMC10307832:

Legend:
Assay in all cases: relative viability (nuclei count vs DMSO), 5 days (fraction); higher = more cells survive
Dactolisib = compound: Cn1c(=O)n(-c2ccc(C(C)(C)C#N)cc2)c2c3cc(-c4cnc5ccccc5c4)ccc3ncc21 [Dactolisib]
Method in brief: (§1)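 After an overnight hold at 37 °C, lung cancer cell lines in 1536-well plates were pinned with five library-drug doses (not always all listed), each √10 from the next, on vehicle-anchored plates. The cells stayed 5 days without fresh medium, then a one-step fix, permeabilisation and Hoechst stain preceded 4× imaging and MetaXpress nuclear counts. A plate passed only with control CV under 25% and at least one doubling. Viability is the median, over plates, of treated-well nuclei relative to vehicle-well nuclei.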

AZ505 = compound: C1CCC(CC1)N(CCNCCC2=C3C(=C(C=C2)O)NC(=O)CO3)C(=O)CCNCCC4=CC(=C(C=C4)Cl)Cl [AZ505]
Method in brief: as §1

Dactolisib + Pemetrexed = compound: Cn1c(=O)n(-c2ccc(C(C)(C)C#N)cc2)c2c3cc(-c4cnc5ccccc5c4)ccc3ncc21 [Dactolisib] + Nc1nc2[nH]cc(CCc3ccc(C(=O)N[C@@H](CCC(=O)O)C(=O)O)cc3)c2c(=O)[nH]1 [Pemetrexed] (partner 0.2 µM)
Method in brief: (§2)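 Cells from lung cancer lines were seeded into 1536-well plates and, one day later, dosed by pin tool. Treatments were either a single drug or a fixed dose of an anchor drug with five library-drug doses (not always all listed) in √10 steps. After 5 days, nuclei were stained in a one-step fixation (final 0.05% Triton X-100, 1% formaldehyde, 1 ug/ml Hoechst) and counted on 4× images, and relative viability is the treated-to-vehicle nuclei ratio, as the median of duplicate plates.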

AZ505 + OSI-027 = compound: C1CCC(CC1)N(CCNCCC2=C3C(=C(C=C2)O)NC(=O)CO3)C(=O)CCNCCC4=CC(=C(C=C4)Cl)Cl [AZ505] + COc1cccc2cc(-c3nc([C@H]4CC[C@H](C(=O)O)CC4)n4ncnc(N)c34)[nH]c12 [OSI-027] (partner 0.5 µM)
Method in brief: as §2

| Cell Line | relative viability (Dactolisib; 0.002 µM) | relative viability (Dactolisib; 0.006325 µM) | relative viability (Dactolisib; 0.02 µM) | relative viability (Dactolisib; 0.06325 µM) | relative viability (Dactolisib; 0.2 µM) | relative viability (AZ505; 0.08 µM) | relative viability (AZ505; 0.253 µM) | relative viability (AZ505; 0.8 µM) | relative viability (AZ505; 2.53 µM) | relative viability (AZ505; 8 µM) | relative viability (Dactolisib + Pemetrexed; first compound 0.002 µM) | relative viability (Dactolisib + Pemetrexed; first compound 0.006325 µM) | relative viability (Dactolisib + Pemetrexed; first compound 0.02 µM) | relative viability (Dactolisib + Pemetrexed; first compound 0.06325 µM) | relative viability (Dactolisib + Pemetrexed; first compound 0.2 µM) | relative viability (AZ505 + OSI-027; first compound 0.08 µM) | relative viability (AZ505 + OSI-027; first compound 0.253 µM) | relative viability (AZ505 + OSI-027; first compound 0.8 µM) | relative viability (AZ505 + OSI-027; first compound 2.53 µM) | relative viability (AZ505 + OSI-027; first compound 8 µM) |
| --- | --- | --- | --- | --- | --- | --- | --- | --- | --- | --- | --- | --- | --- | --- | --- | --- | --- | --- | --- | --- |
| 201T | 1.02 | 1.01 | 0.992 | 0.863 | 0.636 | 0.962 | 0.998 | 0.98 | 0.974 | 1.01 | 0.329 | 0.295 | 0.292 | 0.272 | 0.247 | 0.688 | 0.721 | 0.813 | 0.91 | 0.764 |
| A549 | 0.995 | 0.871 | 0.729 | 0.225 | 0.182 | 0.864 | 0.985 | 0.93 | 0.968 | 1.04 | – | – | – | – | – | – | – | – | – | – |
| A-427 | 1.1 | 0.908 | 0.936 | 0.572 | 0.586 | 0.932 | 0.958 | 0.886 | 1.08 | 0.99 | 1.09 | 1.03 | 0.968 | 0.8 | 0.644 | 0.416 | 0.278 | 0.376 | 0.504 | 0.492 |
| ABC-1 | 0.954 | 0.921 | 0.868 | 0.719 | 0.458 | 0.899 | 0.963 | 0.975 | 0.985 | 1.05 | – | – | – | – | – | 0.469 | 0.325 | 0.521 | 0.493 | 0.558 |
| BEN | 1.02 | 0.883 | 0.81 | 0.536 | 0.366 | 0.873 | 0.97 | 0.905 | 1.1 | 1.05 | 0.714 | 0.757 | 0.603 | 0.639 | 0.434 | 0.287 | 0.274 | 0.259 | 0.304 | 0.309 |
| CAL-12T | 1.01 | 0.976 | 0.721 | 0.342 | 0.323 | 0.909 | 0.941 | 0.967 | 0.956 | 1.03 | 1.23 | 1.17 | 1.17 | 0.412 | 0.325 | 0.545 | 0.548 | 0.667 | 0.645 | 0.834 |
| COR-L23 | 1.15 | 1.06 | 0.911 | 0.27 | 0.249 | 0.947 | 0.97 | 0.893 | 0.933 | 0.95 | 0.194 | 0.198 | 0.195 | 0.197 | 0.183 | 0.494 | 0.65 | 0.588 | 0.486 | 0.656 |
| COR-L 105 | 0.959 | 0.898 | 0.781 | 0.363 | 0.425 | 0.89 | 0.918 | 0.887 | 0.851 | 1.01 | 1.22 | 1.25 | 0.891 | 0.892 | 0.356 | 0.626 | 0.572 | 0.615 | 0.62 | 0.752 |
| Calu-6 | 1.06 | 0.989 | 1.05 | 0.622 | 0.473 | 0.94 | 1.01 | 0.96 | 0.993 | 1.01 | – | – | – | – | – | – | – | – | – | – |
| ChaGo-K-1 | 0.963 | 0.964 | 0.945 | 0.909 | 0.868 | 0.959 | 1 | 1.05 | 1.01 | 1.12 | 0.27 | 0.261 | 0.255 | 0.256 | 0.247 | 0.53 | 0.448 | 0.593 | 0.699 | 0.537 |
| EBC-1 | 1.05 | 0.883 | 0.724 | 0.236 | 0.244 | 0.967 | 0.929 | 1.03 | 1.01 | 0.924 | – | – | – | – | – | – | – | – | – | – |
| EKVX | 1.02 | 0.971 | 0.858 | 0.691 | 0.417 | 0.957 | 0.961 | 0.952 | 0.89 | 1.03 | 0.248 | 0.357 | 0.387 | 0.356 | 0.294 | 0.674 | 0.714 | 0.684 | 0.645 | 0.717 |
| EMC-BAC-2 | 1.07 | 0.924 | 0.88 | 0.636 | 0.494 | 0.948 | 0.789 | 0.923 | 1.03 | 0.987 | 0.424 | 0.39 | 0.448 | 0.456 | 0.416 | 0.358 | 0.38 | 0.392 | 0.385 | 0.372 |
| EPLC-272H | 1.01 | 0.766 | 0.76 | 0.569 | 0.403 | 0.817 | 0.812 | 0.755 | 0.849 | 0.92 | 0.214 | 0.333 | 0.294 | 0.36 | 0.314 | – | 0.251 | 0.22 | 0.263 | 0.283 |
| H3255 | 1.09 | 0.908 | 0.91 | 0.784 | 0.627 | 0.901 | 1 | 1.01 | 1.06 | 1.03 | 0.568 | 0.44 | 0.558 | 0.464 | 0.474 | 0.548 | 0.675 | 0.617 | 0.624 | 0.559 |
| HARA | 1.08 | 0.982 | 0.928 | 0.601 | 0.369 | 0.792 | 0.758 | 0.915 | 0.873 | 0.847 | 0.242 | 0.22 | 0.3 | 0.235 | 0.223 | 0.269 | 0.234 | 0.352 | 0.345 | 0.365 |
| HCC-15 | 0.98 | 0.974 | 0.985 | 0.635 | 0.422 | 0.938 | 0.963 | 1.03 | 0.956 | 1.1 | 0.215 | 0.22 | 0.26 | 0.25 | 0.231 | 0.612 | 0.624 | 0.596 | 0.594 | 0.726 |
